Measured values taken from ChEMBL document CHEMBL5120859, “Optimization of 4-arylthiophene-3-carboxylic acid derivatives as inhibitors of ANO1: Lead optimization studies toward their analgesic efficacy for inflammatory pain” (Eur J Med Chem, 2022).
Active and inactive are the calls of the source. No cut-off for these calls is given here.

Assays:
[1] = target: T1, Anoctamin-2 (Homo sapiens) (UniProt Q9NQ90); assay: Inhibition of human ANO2 expressed in HEK293 cells at 30 uM incubated for 5 mins by whole cell patch clamp electrophysiology relative to control; assay type: cell-based
T1 sequence (whole entry): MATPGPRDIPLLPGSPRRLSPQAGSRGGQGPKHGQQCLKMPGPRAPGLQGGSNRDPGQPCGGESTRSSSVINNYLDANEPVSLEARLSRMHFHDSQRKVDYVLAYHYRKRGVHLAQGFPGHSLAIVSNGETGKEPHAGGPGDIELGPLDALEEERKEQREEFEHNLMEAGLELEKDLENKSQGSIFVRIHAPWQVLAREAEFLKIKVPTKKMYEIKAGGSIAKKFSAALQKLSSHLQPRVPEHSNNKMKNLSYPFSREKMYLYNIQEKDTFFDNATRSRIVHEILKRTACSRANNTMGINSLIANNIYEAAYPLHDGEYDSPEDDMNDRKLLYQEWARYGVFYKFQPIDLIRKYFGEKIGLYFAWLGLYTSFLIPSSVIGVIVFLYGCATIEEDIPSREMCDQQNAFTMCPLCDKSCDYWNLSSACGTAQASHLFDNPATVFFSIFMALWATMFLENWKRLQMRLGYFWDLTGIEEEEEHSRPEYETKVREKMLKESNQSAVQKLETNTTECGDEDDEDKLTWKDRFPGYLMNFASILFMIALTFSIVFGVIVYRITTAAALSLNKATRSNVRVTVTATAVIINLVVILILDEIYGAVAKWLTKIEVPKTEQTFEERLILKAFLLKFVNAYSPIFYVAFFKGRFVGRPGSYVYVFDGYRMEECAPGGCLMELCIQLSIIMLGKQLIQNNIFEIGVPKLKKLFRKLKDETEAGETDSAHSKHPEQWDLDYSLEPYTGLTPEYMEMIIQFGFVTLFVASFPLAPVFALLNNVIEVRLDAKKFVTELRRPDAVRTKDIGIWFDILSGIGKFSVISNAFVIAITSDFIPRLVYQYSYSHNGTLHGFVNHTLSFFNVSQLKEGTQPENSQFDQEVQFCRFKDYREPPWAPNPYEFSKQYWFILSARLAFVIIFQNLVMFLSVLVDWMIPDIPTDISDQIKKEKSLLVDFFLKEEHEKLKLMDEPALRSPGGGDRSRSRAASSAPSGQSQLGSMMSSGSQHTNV

[2] = target: Sodium channel protein type 7 subunit alpha (Homo sapiens) (UniProt Q01118); assay: Inhibition of Nav1.7 (unknown origin) in resting condition at 30 uM by whole cell patch clamp electrophysiology relative to control
[3] = target: Voltage-gated inwardly rectifying potassium channel KCNH2 (Homo sapiens, UniProt Q12809); assay: Cardiotoxicity against human ERG expressed in HEK293 cells by patch clamp assay; assay type: toxicity, cell-based
[4] = target: Sodium channel protein type 7 subunit alpha (Homo sapiens) (UniProt Q01118); assay: Inhibition of Nav1.7 (unknown origin) in half-inactivated condition at 30 uM by whole cell patch clamp electrophysiology relative to control
[5] = target: Voltage-gated potassium channel, KQT; KCNQ2(Kv7.2)/KCNQ3(Kv7.3) (Homo sapiens) (UniProt O43526+O43525); assay: Inhibition of KCNQ2/3 (unknown origin) at a holding potential -40 mV at 30 uM by whole cell patch clamp electrophysiology relative to control
[6] = Cmax in C57BL/6 mouse at 40 mg/kg,IG measured upto 24 hrs by HPLC-MS/MS analysis; assay type: ADME, organism-based; design: dose 40 mg/kg, time < 24 hrs, route ig; conditions: in vivo, po
[7] = Cmax in C57BL/6 mouse at 80 mg/kg,IG measured upto 24 hrs by HPLC-MS/MS analysis; assay type: ADME, organism-based; design: dose 80 mg/kg, time < 24 hrs, route ig; conditions: in vivo, po
[8] = AUC (0 to t) in C57BL/6 mouse at 80 mg/kg,IG measured upto 24 hrs by HPLC-MS/MS analysis; assay type: ADME, organism-based; design: dose 80 mg/kg, time < 24 hrs, route ig; conditions: in vivo, po
[9] = MRT (0 to t) in C57BL/6 mouse at 40 mg/kg,iv measured upto 24 hrs by HPLC-MS/MS analysis; assay type: ADME, organism-based; conditions: in vivo
[10] = MRT (0 to t) in C57BL/6 mouse at 80 mg/kg,IG measured upto 24 hrs by HPLC-MS/MS analysis; assay type: ADME, organism-based; conditions: in vivo, po
[11] = Bioavailability in C57BL/6 mouse at 40 mg/kg,IG measured upto 24 hrs by HPLC-MS/MS analysis; assay type: ADME, organism-based; conditions: in vivo, po
[12] = Bioavailability in C57BL/6 mouse at 80 mg/kg,IG measured upto 24 hrs by HPLC-MS/MS analysis; assay type: ADME, organism-based; conditions: in vivo, po
[13] = Brain concentration in C57BL/6 mouse at 40 mg/kg,IG measured after 0.25 hrs by HPLC analysis; assay type: ADME, organism-based; conditions: po, read-out: Ct
[14] = Brain concentration in C57BL/6 mouse at 40 mg/kg,IG measured after 24 hrs by HPLC analysis; assay type: ADME, organism-based; conditions: po, read-out: Ct
[15] = Plasma concentration in C57BL/6 mouse at 40 mg/kg,IG measured after 0.25 hrs by HPLC analysis; assay type: ADME, organism-based; conditions: po
[16] = Plasma concentration in C57BL/6 mouse at 40 mg/kg,IG measured after 6 hrs by HPLC analysis; assay type: ADME, organism-based; conditions: po
[17] = Plasma concentration in C57BL/6 mouse at 40 mg/kg,IG measured after 24 hrs by HPLC analysis; assay type: ADME, organism-based; conditions: po
[18] = Ratio of drug concentration in brain to plasma in C57BL/6 mouse at 40 mg/kg,IG measured after 0.25 hrs by HPLC analysis; assay type: ADME, organism-based; conditions: po
[19] = Cytotoxicity against human HEK293 cells assessed as inhibition of cell growth at 30 uM incubated for 72 hrs by CCK-8 assay; assay type: toxicity, cell-based
[20] = Acute toxicity in C57BL/6 mouse assessed as toxic symptoms at 1000 mg/kg,po measured after 24 hrs; assay type: organism-based; conditions: in vivo
Mus musculus [21] = assay: Analgesic activity in C57BL/6 mouse model of formalin-induced allodynia assessed as reduction on foot licking pain response at 40 to 80 mg/kg,po measured after 10 mins; assay type: functional, organism-based; conditions: dose 40-80 mg/kg
Mus musculus [22] = assay: Analgesic activity in C57BL/6 mouse model of formalin-induced allodynia assessed as reduction on foot licking pain response at 40 to 80 mg/kg,po measured at 15 to 60 mins; assay type: functional, organism-based; conditions: dose 40-80 mg/kg, time 15-60 min, DDE = dose-dependent effect
Mus musculus [23] = assay: Analgesic activity in C57BL/6 mouse model of CFA-induced mechanical hyperalgesia assessed as […] at 40 to 80 mg/kg,po measured after 12 hrs by Von Frey test; assay type: functional, organism-based; conditions: dose 40-80 mg/kg
Mus musculus [24] = assay: Analgesic activity in C57BL/6 mouse model of CFA-induced mechanical hyperalgesia assessed as […] at 40 to 80 mg/kg,po measured after 7 days by Von Frey test; assay type: functional, organism-based; conditions: dose 40-80 mg/kg, time 7.0 day
Mus musculus [25] = assay: Analgesic activity in C57BL/6 mouse model of capsaicin-induced allodynia assessed as reduction on foot licking pain response at 80 mg/kg,po measured after 5 mins; assay type: functional, organism-based
[26] = Toxicity in C57BL/6 mouse model of capsaicin-induced allodynia assessed as increase in body temperature at 40 to 80 mg/kg,po; assay type: organism-based; conditions: in vivo, dose 40-80 mg/kg

Chain of Sodium channel protein type 7 subunit alpha (Homo sapiens) (Q01118 whole entry): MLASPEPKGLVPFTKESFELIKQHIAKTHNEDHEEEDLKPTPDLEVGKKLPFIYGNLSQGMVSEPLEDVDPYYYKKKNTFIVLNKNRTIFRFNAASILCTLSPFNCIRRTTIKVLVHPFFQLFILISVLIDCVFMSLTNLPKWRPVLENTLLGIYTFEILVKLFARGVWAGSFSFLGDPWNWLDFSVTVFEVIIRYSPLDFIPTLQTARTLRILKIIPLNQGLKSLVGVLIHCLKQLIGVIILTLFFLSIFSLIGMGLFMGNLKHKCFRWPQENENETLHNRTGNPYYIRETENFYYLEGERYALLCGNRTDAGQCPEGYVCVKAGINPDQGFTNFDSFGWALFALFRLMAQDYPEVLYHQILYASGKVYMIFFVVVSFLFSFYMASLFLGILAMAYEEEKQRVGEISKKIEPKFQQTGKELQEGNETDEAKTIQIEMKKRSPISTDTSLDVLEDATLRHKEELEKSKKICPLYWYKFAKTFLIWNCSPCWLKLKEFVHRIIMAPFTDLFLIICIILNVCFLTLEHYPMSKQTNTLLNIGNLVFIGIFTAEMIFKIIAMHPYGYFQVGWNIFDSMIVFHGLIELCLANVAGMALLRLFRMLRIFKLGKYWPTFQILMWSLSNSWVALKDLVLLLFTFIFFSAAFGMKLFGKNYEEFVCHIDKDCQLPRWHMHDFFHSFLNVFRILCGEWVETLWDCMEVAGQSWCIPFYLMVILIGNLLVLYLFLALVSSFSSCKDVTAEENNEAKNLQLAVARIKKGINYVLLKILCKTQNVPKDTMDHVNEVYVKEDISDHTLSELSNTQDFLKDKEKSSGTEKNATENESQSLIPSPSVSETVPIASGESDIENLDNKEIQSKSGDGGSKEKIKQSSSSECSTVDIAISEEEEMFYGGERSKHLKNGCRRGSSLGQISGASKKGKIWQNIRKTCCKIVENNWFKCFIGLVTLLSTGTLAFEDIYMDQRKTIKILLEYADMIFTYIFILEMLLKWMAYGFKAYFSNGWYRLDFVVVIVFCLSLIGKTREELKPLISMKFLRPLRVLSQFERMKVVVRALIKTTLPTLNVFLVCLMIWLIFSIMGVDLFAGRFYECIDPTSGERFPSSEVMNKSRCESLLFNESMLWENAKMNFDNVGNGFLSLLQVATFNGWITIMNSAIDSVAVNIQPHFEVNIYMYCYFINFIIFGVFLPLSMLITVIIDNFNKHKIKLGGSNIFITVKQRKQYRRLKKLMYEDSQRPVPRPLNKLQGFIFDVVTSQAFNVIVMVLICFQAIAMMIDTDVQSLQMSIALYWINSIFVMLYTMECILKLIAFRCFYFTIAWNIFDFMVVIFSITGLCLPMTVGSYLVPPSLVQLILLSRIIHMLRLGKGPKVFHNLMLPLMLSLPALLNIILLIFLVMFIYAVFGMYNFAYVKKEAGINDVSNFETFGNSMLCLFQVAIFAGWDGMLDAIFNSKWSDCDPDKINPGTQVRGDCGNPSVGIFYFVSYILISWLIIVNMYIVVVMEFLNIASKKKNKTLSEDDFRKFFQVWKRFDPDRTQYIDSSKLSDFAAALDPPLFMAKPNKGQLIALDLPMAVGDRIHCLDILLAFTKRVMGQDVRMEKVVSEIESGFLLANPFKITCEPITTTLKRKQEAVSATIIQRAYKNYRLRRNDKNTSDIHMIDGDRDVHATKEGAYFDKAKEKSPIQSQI
Chain of Voltage-gated inwardly rectifying potassium channel KCNH2 (Q12809 whole entry): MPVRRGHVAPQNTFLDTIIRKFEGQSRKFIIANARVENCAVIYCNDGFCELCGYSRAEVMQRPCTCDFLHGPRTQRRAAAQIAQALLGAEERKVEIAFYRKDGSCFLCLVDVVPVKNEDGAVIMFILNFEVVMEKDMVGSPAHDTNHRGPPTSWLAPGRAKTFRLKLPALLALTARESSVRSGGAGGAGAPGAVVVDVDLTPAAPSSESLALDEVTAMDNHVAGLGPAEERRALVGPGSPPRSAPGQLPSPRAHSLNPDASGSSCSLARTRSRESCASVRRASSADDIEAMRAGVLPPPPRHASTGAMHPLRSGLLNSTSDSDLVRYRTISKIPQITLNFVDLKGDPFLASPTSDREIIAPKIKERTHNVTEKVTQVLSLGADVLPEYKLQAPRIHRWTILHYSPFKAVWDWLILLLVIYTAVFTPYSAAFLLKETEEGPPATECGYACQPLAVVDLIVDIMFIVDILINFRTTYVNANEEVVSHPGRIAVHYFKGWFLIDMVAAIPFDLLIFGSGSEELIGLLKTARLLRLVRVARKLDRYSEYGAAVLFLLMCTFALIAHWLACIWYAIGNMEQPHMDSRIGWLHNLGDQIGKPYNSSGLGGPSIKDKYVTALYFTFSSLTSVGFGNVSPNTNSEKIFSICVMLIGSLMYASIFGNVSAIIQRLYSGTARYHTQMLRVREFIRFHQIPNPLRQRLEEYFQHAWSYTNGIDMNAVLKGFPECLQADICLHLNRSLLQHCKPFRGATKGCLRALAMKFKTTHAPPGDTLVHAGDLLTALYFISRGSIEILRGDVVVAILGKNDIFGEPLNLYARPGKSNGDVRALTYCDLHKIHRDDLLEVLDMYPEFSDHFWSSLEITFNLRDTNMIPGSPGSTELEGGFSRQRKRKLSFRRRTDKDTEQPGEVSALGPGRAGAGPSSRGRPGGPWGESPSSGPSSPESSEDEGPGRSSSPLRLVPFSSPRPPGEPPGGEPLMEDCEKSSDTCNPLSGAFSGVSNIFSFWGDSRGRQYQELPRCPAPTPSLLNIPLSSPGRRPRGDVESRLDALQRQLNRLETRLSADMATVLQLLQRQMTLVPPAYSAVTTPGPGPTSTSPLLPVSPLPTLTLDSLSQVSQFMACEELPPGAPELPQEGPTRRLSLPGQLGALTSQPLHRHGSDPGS

Q: For `O=C(Nc1scc(-c2ccc(Cl)cc2)c1C(=O)O)c1cc(F)ccc1F`, which inhibition [1] is on record?
A: 72.8%

Q: And the inhibition [2]?
A: 4.4%

Q: And the IC50 [3]?
A: > 30 µM

Q: What about the inhibition [4] of the same molecule?
A: 6.5%

Q: What about the inhibition [5] of the same molecule?
A: 21.4%

Q: And the Cmax [6]?
A: 97.7 µg/mL

Q: And the Cmax [7]?
A: 130 µg/mL

Q: What about the AUC(0-t) at 24 h [8] of the same molecule?
A: 596 µg·h/mL

Q: What about the MRT last at 24 h [9] of the same molecule?
A: 4.9 h

Q: What about the MRT last at 24 h [10] of the same molecule?
A: 7.6 h

Q: What about the bioavailability [11] of the same molecule?
A: 75.7%

Q: And the bioavailability [12]?
A: 85.1%

Q: And the concentration at 0.25 h [13]?
A: 1440 ng/g

Q: And the concentration at 24 h [14]?
A: 74.8 ng/g

Q: And the concentration at 0.25 h [15]?
A: 97.7 µg/mL

Q: And the concentration at 6 h [16]?
A: 24.3 µg/mL

Q: And the concentration at 24 h [17]?
A: 1.67 µg/mL

Q: And the Ratio [18]?
A: 1.5%

Q: And the inhibition at 72 h, 30 µM [19]?
A: < 10%

Q: And the Activity [20]?
A: Non-Toxic

Q: And the Activity (Mus musculus [21])?
A: Active

Q: And the Activity (Mus musculus [22])?
A: Dde

Q: And the Activity (Mus musculus [23])?
A: Active

Q: What about the Activity (Mus musculus [24]) of the same molecule?
A: Active

Q: And the Activity (Mus musculus [25])?
A: Active

Q: What about the Activity [26] of the same molecule?
A: Non-Toxic
